Measured values published in article PMC10742472, “Synthesis and Characterisation of Platinum(II) Diaminocyclohexane Complexes with Pyridine Derivatives as Anticancer Agents” (International Journal of Molecular Sciences, 2023).

Assays:
[1] = type: physicochemical
Description: Lipophilicity was calculated using RP-HPLC. A stock solution of each PC was injected at different isocratic ratios ranging from 70–90% solvent B (organic) at a flow rate of 1 mL·min^−1 [32, 33, 34]. The complexes have low solubility in water, often requiring DMSO to make concentrated solutions. Yet the LogK’ calculated using these experimental data indicated high lipophilicity, which is typical for 2+ charged complexes. […] When heat was applied, they would not precipitate out of the solution after cooling. This confirmed that a lack of persistence was the cause of the “observed” low solubility in H2O. […] Their increased lipophilicity may indicate they have the potential to be administered orally, a characteristic usually associated with Pt(IV) complexes. Other factors, such as stability and cellular absorption, would need to be considered before the potential of these Pt(II) anticancer agents could be evaluated.
Lipophilicity was evaluated using RP-HPLC, whereby LogKw is calculated by injecting a stock solution of the PC at different isocratic ratios ranging from 70–90% solvent B (organic) at a flow rate of 1 mL·min^−1. An Agilent Technologies 1260 Infinity machine equipped with a Phenomenex Onyx™ Monolithic C18 reverse phase column (100 × 4.6 mm, 130 Å) was used to determine purity. The mobile phase comprised 0.06% TFA in water (solvent A) and 0.06% TFA in 90:10 ACN:H2O mixture (solvent B). The PC peak was eluted outside the dead zero volume time to avoid inaccurate results. The dead zero volume time was determined using potassium iodide as an external dead volume marker, with further details in the Supplementary Materials. The subsequent peaks were recorded, and K was calculated using Equation (6). (6) K=tr−t0/t0 where K is the capacity factor, tr is the retention time of the analyte, and t0 is the dead time determined using a solution of KI in the same column. At least five different isocratic ratios were used to assess each PC, and each experiment was repeated three times. LogK’ was then calculated and plotted against the concentration of ACN in the mobile phase. […] (7) LogK^′=Sφ+LogKw where S is the slope, φ is the concentration of ACN in the mobile phase, and LogKw represents the capacity factor of the compound in 100% water (Figure S49).

Calf-thymus DNA (ctDNA) = assay: Fluorescent intercalator displacement (FID) ctDNA binding assay with ethidium bromide; set-up: Ka (binding coefficient) / KF (binding constant for fluorescence) / Kq (bimolecular quenching constant) / KSV (Stern–Volmer quenching constant): unit not given here; conditions: 75 µM ethidium bromide, 150 µM ctDNA, pH 7.0
Description: To achieve this, the fluorescent signal of a DNA intercalator, in this case, ethidium bromide (EtBr), is measured as increasing concentrations of PC are added. As the PC displaces the EtBr, the fluorescence of the mixture is diminished, and the DNA binding capacity of the complex can be calculated from the fluorescence measurement. Calf-thymus DNA (ctDNA) was used and saturated with EtBr. The change in fluorescence is monitored as the complex is titrated into this solution. Once the decrease in fluorescence plateaued, the titration was ended. […] The fluorescence was measured from 550-750 nm and excited at 480 nm. Importantly, the cuvette was inverted four times, and the solution was incubated for 3 min after the addition of […] to allow adequate time for the PCs to interact with the DNA before scanning. […] A plot of F0/F against [PC] using experimental values allowed the determination of Kq and KSV from the slope as per Equation (5). (5) […] where n is the number of ethidium ligands that are displaced per PC. It is important to note that this expression is a simplification of the true binding interaction, as it ignores the effect of EtBr on the binding equilibrium. […] A plot of Log10[(F0 - F)/F)] against Log10[PC] was used to determine KF and n from the intercept and slope, respectively.

HT29 (Colon) = assay: MTT cytotoxicity assay, HT29; type: cell-based; conditions: 72 h exposure
U87 (Glioblastoma) = assay: MTT cytotoxicity assay, U87; type: cell-based; conditions: 72 h exposure
MCF-7 (Breast) = assay: MTT cytotoxicity assay, MCF-7; type: cell-based; conditions: 72 h exposure
H460 (Lung) = assay: MTT cytotoxicity assay, H460; type: cell-based; conditions: 72 h exposure
A431 (Skin) = assay: MTT cytotoxicity assay, A431; type: cell-based; conditions: 72 h exposure
Du145 (Prostate) = assay: MTT cytotoxicity assay, Du145; type: cell-based; conditions: 72 h exposure
BE2-C (Neuroblastoma) = assay: MTT cytotoxicity assay, BE2-C; type: cell-based; conditions: 72 h exposure
SJ-G2 (Glioblastoma) = assay: MTT cytotoxicity assay, SJ-G2; type: cell-based; conditions: 72 h exposure
MIA (Pancreas) = assay: MTT cytotoxicity assay, MIA; type: cell-based; conditions: 72 h exposure
MCF10A (Breast, Normal) = assay: MTT cytotoxicity assay, MCF10A non-cancer breast cells; type: cell-based; conditions: 72 h exposure

For `N[C@H]1CCCC[C@@H]1N.[Pt+2].c1ccc(-c2nc3ccccc3[nH]2)nc1` [Complex 6a], the Lipophilicity [1] was 2.42 ± 0.02, the “Binding Stoichiometry” value (Calf-thymus DNA (ctDNA)) was 0.84 and the “KF (binding constant for fluorescence)” value (Calf-thymus DNA (ctDNA)) was 2.94 × 10^3. The “KSV (Stern–Volmer quenching constant)” value (Calf-thymus DNA (ctDNA)) was 2.12 × 10^3, the “Ka (binding coefficient)” value (Calf-thymus DNA (ctDNA)) was 0.66 × 10^4 and the “Kq (bimolecular quenching constant)” value (Calf-thymus DNA (ctDNA)) was 0.30 × 10^3. The “n (molar equivalents of PC at the point of intersection)” value (Calf-thymus DNA (ctDNA)) was 0.71, the “ΔFsat (change in fluorescence at the point of binding)” value (Calf-thymus DNA (ctDNA)) was 116.7 and the GI50 (HT29 (Colon)) was 0.45 ± 0.02 µM. It also gave a GI50 (U87 (Glioblastoma)) of 0.034 ± 0.003 µM, a GI50 (MCF-7 (Breast)) of 0.16 ± 0.03 µM and a GI50 (H460 (Lung)) of 0.26 ± 0.04 µM. For the same compound, the GI50 (A431 (Skin)) was 0.36 ± 0.05 µM, the GI50 (Du145 (Prostate)) was 0.3 ± 0.04 µM and the GI50 (BE2-C (Neuroblastoma)) was 0.19 ± 0.02 µM. The GI50 (SJ-G2 (Glioblastoma)) was 2.7 ± 0.29 µM, the GI50 (MIA (Pancreas)) was 0.3 ± 0.03 µM and the GI50 (MCF10A (Breast, Normal)) was 0.15 ± 0.01 µM.

In the case of “[Pt(2-(2-pyridyl)benzimidazole)(1R,2R-(+)-diaminocyclohexane)]^2+ [Complex 6b]”, the Lipophilicity [1] is reported as 2.46 ± 0.025, the “Binding Stoichiometry” value (Calf-thymus DNA (ctDNA)) is reported as 0.94 and the “KF (binding constant for fluorescence)” value (Calf-thymus DNA (ctDNA)) is reported as 2.84 × 10^3. The “KSV (Stern–Volmer quenching constant)” value (Calf-thymus DNA (ctDNA)) was 2.07 × 10^3, the “Ka (binding coefficient)” value (Calf-thymus DNA (ctDNA)) was 7.43 × 10^4 and the “Kq (bimolecular quenching constant)” value (Calf-thymus DNA (ctDNA)) was 0.30 × 10^3. For the same compound, the “n (molar equivalents of PC at the point of intersection)” value (Calf-thymus DNA (ctDNA)) was 0.67, the “ΔFsat (change in fluorescence at the point of binding)” value (Calf-thymus DNA (ctDNA)) was 113.0 and the GI50 (HT29 (Colon)) was 33 ± 1.2 µM. For the same compound, the GI50 (U87 (Glioblastoma)) was 7.6 ± 0.46 µM, the GI50 (MCF-7 (Breast)) was 8 ± 1.6 µM and the GI50 (H460 (Lung)) was 16 ± 1.2 µM. It also gave a GI50 (A431 (Skin)) of 24 ± 2.6 µM, a GI50 (Du145 (Prostate)) of 22 ± 1.5 µM and a GI50 (BE2-C (Neuroblastoma)) of 30 ± 2.1 µM. The GI50 (SJ-G2 (Glioblastoma)) was 38 ± 5.9 µM, the GI50 (MIA (Pancreas)) was 30 ± 6.9 µM and the GI50 (MCF10A (Breast, Normal)) was 17 ± 1.5 µM.

Compound `N.N.[Cl][Pt][Cl]` [Cisplatin, reference compound] has a GI50 (HT29 (Colon)) of 11 ± 1.9 µM, a GI50 (U87 (Glioblastoma)) of 4 ± 1.1 µM and a GI50 (MCF-7 (Breast)) of 6.5 ± 0.8 µM. The GI50 (H460 (Lung)) was 2.4 ± 0.3 µM, the GI50 (A431 (Skin)) was 1.2 ± 0.1 µM and the GI50 (Du145 (Prostate)) was 1.9 ± 0.2 µM. It also gave a GI50 (BE2-C (Neuroblastoma)) of 0.4 ± 0.1 µM and a GI50 (SJ-G2 (Glioblastoma)) of 7.5 ± 1.3 µM.

With “[Pt(2-(1H-Imidazol-2-yl)pyridine)(1R,2R-(+)-diaminocyclohexane)]^2+ [Complex 5b]” the “Binding Stoichiometry” value (Calf-thymus DNA (ctDNA)) was 0.78, the “KF (binding constant for fluorescence)” value (Calf-thymus DNA (ctDNA)) was 3.66 × 10^3 and the “KSV (Stern–Volmer quenching constant)” value (Calf-thymus DNA (ctDNA)) was 2.54 × 10^3. The “Ka (binding coefficient)” value (Calf-thymus DNA (ctDNA)) was 3.15 × 10^4, the “Kq (bimolecular quenching constant)” value (Calf-thymus DNA (ctDNA)) was 0.41 × 10^3 and the “n (molar equivalents of PC at the point of intersection)” value (Calf-thymus DNA (ctDNA)) was 0.95. For the same compound, the “ΔFsat (change in fluorescence at the point of binding)” value (Calf-thymus DNA (ctDNA)) was 165.9, the GI50 (HT29 (Colon)) was 0.75 ± 0.07 µM and the GI50 (U87 (Glioblastoma)) was 0.05 ± 0.01 µM. For the same compound, the GI50 (MCF-7 (Breast)) was 0.3 ± 0.07 µM, the GI50 (H460 (Lung)) was 0.37 ± 0.05 µM and the GI50 (A431 (Skin)) was 0.49 ± 0.07 µM. The GI50 (Du145 (Prostate)) was 0.44 ± 0.07 µM, the GI50 (BE2-C (Neuroblastoma)) was 0.3 ± 0.05 µM and the GI50 (SJ-G2 (Glioblastoma)) was 4.5 ± 0.6 µM. The GI50 (MIA (Pancreas)) was 0.56 ± 0.11 µM and the GI50 (MCF10A (Breast, Normal)) was 0.22 ± 0.03 µM.

For `N[C@H]1CCCC[C@@H]1N.[Pt+2].c1ccc(-c2ncc[nH]2)nc1` [Complex 5a, [Pt(2-(1H-Imidazol-2-yl)pyridine)(1S,2S-(+)-diaminocyclohexane)]^2+], the Lipophilicity [1] was 2.50 ± 0.02, the “Binding Stoichiometry” value (Calf-thymus DNA (ctDNA)) was 0.80 and the “KF (binding constant for fluorescence)” value (Calf-thymus DNA (ctDNA)) was 3.16 × 10^3. For the same compound, the “KSV (Stern–Volmer quenching constant)” value (Calf-thymus DNA (ctDNA)) was 2.11 × 10^3, the “Ka (binding coefficient)” value (Calf-thymus DNA (ctDNA)) was 5.89 × 10^4 and the “Kq (bimolecular quenching constant)” value (Calf-thymus DNA (ctDNA)) was 0.36 × 10^3. For the same compound, the “n (molar equivalents of PC at the point of intersection)” value (Calf-thymus DNA (ctDNA)) was 0.87, the “ΔFsat (change in fluorescence at the point of binding)” value (Calf-thymus DNA (ctDNA)) was 122.4 and the GI50 (HT29 (Colon)) was 0.56 ± 0.1 µM. It also gave a GI50 (U87 (Glioblastoma)) of 0.036 ± 0.009 µM, a GI50 (MCF-7 (Breast)) of 0.15 ± 0.03 µM and a GI50 (H460 (Lung)) of 0.29 ± 0.05 µM. The GI50 (A431 (Skin)) was 0.37 ± 0.06 µM, the GI50 (Du145 (Prostate)) was 0.29 ± 0.07 µM and the GI50 (BE2-C (Neuroblastoma)) was 0.21 ± 0.04 µM. The GI50 (SJ-G2 (Glioblastoma)) was 2.7 ± 0.46 µM, the GI50 (MIA (Pancreas)) was 0.43 ± 0.07 µM and the GI50 (MCF10A (Breast, Normal)) was 0.15 ± 0.03 µM.
